The assay concerns the target T1, Bile acid receptor (Homo sapiens, UniProt Q96RI1).
T1 sequence (Q96RI1 whole entry): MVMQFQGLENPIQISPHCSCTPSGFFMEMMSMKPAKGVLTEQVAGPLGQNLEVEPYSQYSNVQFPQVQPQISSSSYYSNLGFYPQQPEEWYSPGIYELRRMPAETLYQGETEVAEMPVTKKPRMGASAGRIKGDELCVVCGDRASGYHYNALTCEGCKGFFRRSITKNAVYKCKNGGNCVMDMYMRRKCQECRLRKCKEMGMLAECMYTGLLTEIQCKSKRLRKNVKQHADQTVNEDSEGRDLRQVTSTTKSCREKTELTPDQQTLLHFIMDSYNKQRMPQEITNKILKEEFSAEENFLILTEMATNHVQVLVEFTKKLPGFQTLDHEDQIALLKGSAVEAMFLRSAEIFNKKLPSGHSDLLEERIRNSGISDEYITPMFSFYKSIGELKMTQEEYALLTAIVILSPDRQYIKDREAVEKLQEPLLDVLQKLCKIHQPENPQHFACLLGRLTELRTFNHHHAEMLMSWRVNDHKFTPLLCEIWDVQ
Kind of assay: FXR Reporter Assay kit purchased from Indigo Bioscience (Catalogue number: IB00601) to determine the potency and efficacy of compound developed by Enanta that can induce FXR activation. The principle application of this reporter assay system is to quantify functional activity of human FXR. The assay utilizes non-human mammalian cells, CHO (Chinese hamster ovary) cells engineered to express human NR1H4 protein (referred to as FXR). Reporter cells also incorporate the cDNA encoding beetle luciferase which catalyzes the substrates and yields photon emission. Luminescence intensity of the reaction is quantified using a plate-reading luminometer, Envision. Reporter Cells include the luciferase reporter gene functionally linked to an FXR responsive promoter. Thus, quantifying changes in luciferase expression in the treated reporter cells provides a sensitive surrogate measure of the changes in FXR activity. […] The assay is according to the manufacturer's instructions. In brief, the assay was performed in white, 96 well plates using final volume of 100 μl containing cells with different doses of compounds. Retrieve Reporter Cells from −80° C. storage. Perform a rapid thaw of the frozen cells by transferring a 10 ml volume of 37° C. cell recovery medium into the tube of frozen cells. Recap the tube of Reporter Cells and immediately place it in a 37° C. water bath for 5-10 minutes. […]. Format: cell-based. Background: Reporter assays use an easily measured gene product as a stand-in for the process of interest.

For orientation: EC50 means the midpoint of the concentration-response curve. High values mean a need for much substance, low ones an effect from little substance. In turn, `CN(Cc1ccc(C(=O)NS(=O)(=O)N(C)C)cc1)c1ccc(OCc2c(-c3c(Cl)cccc3Cl)noc2C2CC2)nc1C(F)(F)F` came in with an EC50 of less than 100 nM.

The record behind these values is ChEMBL document CHEMBL5725943, “Isoxazole derivatives as FXR agonists and methods of use therof” (2018).
